The values below come from patent publication US20250236608A1, “EGFR INHIBITORS” (Blueprint Medicines Corporation, priority 2022, published 2025).

As usually defined, the IC50 is the concentration needed to halve the response being measured.

SMILES strings stand for the structures.

The target of one test is EGFR L858R (Homo sapiens (Human), UniProt P00533, L858R). As to the kind of experiment: Biochemical EGFR inhibition assay, EGFR L858R. To be noted: Caliper mobility shift; 1.0 mM ATP or ATP Km; read-out: Enz EGFR_L858R IC50.
The target of the next test is EGFR (d746-750) (Homo sapiens (Human), UniProt P00533, DEL746-750). The test can be described thus: Biochemical EGFR inhibition assay, EGFR (d746-750). To be noted: Caliper mobility shift; 1.0 mM ATP or ATP Km; read-out: Enz EGFR_Exon19-del746-750 IC50.
Test [1] concerns the target pEGFR (Tyr1068) in PC-9 cells (Ex19Del) (Homo sapiens (Human), UniProt P00533, DEL746-750). The test can be described thus: PC-9 pEGFR AlphaLISA assay. The test is classed as cell-based. To be noted: 4 hours incubation, p-EGFR (Tyr1068) AlphaLISA, read-out: Ext pEGFR_PC-9 Ex19Del IC50. Put shortly: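 Readout: AlphaLISA SureFire Ultra signal in cell lysates, with acceptor beads for 1.5-2 h and donor beads overnight at room temperature in the dark. Beforehand, unstimulated cells in 10% FBS medium received compounds (10 points, 4-fold steps) for 4 h at 37° C. IC50 came from percent inhibition curves.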

Chain of pEGFR (Tyr1068) in PC-9 cells (Ex19Del) (P00533 other isoform, or with tags, fused parts or gaps del 746-750): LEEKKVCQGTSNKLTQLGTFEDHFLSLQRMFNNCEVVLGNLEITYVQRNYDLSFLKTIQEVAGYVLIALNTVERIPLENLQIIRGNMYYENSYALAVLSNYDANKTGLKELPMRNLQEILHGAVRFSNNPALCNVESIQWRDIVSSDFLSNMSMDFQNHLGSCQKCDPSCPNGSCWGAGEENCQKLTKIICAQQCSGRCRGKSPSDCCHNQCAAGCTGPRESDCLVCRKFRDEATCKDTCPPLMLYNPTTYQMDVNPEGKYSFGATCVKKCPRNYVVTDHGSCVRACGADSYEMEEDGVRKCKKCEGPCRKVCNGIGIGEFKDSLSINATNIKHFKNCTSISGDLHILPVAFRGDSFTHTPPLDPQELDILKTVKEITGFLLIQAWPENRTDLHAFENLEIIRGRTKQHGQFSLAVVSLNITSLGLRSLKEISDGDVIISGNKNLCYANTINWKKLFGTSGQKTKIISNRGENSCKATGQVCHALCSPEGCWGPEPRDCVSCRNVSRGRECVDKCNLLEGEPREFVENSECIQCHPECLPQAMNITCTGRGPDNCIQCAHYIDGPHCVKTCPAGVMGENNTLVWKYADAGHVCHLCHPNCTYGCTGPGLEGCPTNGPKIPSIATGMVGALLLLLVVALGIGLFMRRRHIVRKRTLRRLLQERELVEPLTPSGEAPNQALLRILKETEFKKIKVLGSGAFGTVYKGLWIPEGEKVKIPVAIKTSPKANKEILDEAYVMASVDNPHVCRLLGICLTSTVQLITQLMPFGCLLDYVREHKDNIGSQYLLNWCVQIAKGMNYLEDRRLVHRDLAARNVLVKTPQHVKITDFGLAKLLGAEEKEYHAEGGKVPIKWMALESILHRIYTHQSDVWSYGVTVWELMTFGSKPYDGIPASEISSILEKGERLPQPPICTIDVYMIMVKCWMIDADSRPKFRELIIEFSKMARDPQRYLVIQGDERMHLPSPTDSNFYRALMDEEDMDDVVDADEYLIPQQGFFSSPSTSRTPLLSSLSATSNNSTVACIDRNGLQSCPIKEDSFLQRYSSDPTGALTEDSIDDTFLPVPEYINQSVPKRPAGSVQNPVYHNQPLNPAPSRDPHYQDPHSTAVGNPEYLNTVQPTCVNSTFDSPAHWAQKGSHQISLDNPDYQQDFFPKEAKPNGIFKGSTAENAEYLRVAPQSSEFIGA
Chain of EGFR L858R (P00533 25-1210 L858R): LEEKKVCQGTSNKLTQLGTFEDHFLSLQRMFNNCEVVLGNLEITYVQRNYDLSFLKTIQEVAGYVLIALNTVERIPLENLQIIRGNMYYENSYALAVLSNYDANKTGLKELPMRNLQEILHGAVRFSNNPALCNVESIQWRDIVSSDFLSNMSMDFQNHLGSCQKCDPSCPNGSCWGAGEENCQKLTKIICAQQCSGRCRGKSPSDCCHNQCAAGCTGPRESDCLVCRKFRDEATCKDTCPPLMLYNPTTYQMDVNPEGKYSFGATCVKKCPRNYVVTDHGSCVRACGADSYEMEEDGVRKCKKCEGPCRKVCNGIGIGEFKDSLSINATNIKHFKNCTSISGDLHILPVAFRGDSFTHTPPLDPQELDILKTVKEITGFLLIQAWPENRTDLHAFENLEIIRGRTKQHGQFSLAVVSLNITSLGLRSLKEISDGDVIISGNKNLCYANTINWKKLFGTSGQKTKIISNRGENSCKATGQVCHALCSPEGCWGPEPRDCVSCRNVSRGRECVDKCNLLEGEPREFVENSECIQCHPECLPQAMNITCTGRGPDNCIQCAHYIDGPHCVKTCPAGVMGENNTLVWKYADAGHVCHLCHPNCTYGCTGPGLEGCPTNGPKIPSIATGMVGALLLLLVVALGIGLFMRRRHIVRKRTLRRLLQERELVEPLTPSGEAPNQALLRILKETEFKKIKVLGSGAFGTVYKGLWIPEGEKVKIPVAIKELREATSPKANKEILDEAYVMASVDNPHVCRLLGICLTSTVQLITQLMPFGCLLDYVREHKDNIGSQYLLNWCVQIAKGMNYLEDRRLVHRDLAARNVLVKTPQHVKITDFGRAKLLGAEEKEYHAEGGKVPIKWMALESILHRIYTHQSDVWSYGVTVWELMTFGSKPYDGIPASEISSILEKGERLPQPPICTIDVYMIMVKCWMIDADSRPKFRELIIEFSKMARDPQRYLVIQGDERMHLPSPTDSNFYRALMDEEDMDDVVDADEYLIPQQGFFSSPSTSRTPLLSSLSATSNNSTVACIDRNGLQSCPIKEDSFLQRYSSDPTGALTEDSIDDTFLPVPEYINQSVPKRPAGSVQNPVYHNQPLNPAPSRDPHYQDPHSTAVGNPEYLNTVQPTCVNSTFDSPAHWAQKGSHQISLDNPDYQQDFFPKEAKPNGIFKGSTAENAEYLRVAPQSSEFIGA
Chain of EGFR (d746-750) (P00533 other isoform, or with tags, fused parts or gaps del 1-694/del 746-750 limits assumed): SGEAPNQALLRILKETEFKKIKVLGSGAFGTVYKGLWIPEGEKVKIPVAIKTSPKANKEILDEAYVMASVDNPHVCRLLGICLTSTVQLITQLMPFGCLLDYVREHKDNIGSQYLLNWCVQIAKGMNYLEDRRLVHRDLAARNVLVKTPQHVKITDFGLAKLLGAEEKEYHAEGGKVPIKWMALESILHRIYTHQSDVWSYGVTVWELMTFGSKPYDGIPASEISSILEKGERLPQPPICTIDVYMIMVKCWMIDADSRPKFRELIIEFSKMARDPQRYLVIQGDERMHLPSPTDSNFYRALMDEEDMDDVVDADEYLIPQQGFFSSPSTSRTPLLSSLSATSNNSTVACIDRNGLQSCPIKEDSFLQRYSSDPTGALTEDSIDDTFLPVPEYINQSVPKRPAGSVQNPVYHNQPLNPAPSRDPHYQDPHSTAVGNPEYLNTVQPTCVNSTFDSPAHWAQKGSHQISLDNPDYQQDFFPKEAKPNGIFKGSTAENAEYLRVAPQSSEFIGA

In the case of `CCOc1cc2ncnc(-c3cn(C)nc3-c3ccccc3)c2cc1OC1CCNCC1` [Example 8, 7-ethoxy-4-(1-methyl-3-phenyl-1H-pyrazol-4-yl)-6-(piperidin-4-yloxy)quinazoline], the 50% inhibitory concentration (IC50) at EGFR L858R amounted to 4.8 nM; at EGFR (d746-750), 3.4 nM; in test [1] it was 4.5 nM.

Consider `COc1cc2ncnc(-c3cn(C)nc3-c3ccccc3)c2cc1-c1ccc2c(c1)CN(C)C2=O` [Example 137, 5-(7-methoxy-4-(1-methyl-3-phenyl-1H-pyrazol-4-yl)quinazolin-6-yl)-2-methylisoindolin-1-one], for which the half-inhibitory concentration (IC50) is 3.9 nM on EGFR L858R, 2.2 nM at EGFR (d746-750) and 3.6 nM in test [1].

Consider `CCOc1cc2ncnc(-c3cn(C)nc3-c3ccccc3)c2cc1NC(=O)c1cccnc1` [Example 296, N-(7-ethoxy-4-(1-methyl-3-phenyl-1H-pyrazol-4-yl)quinazolin-6-yl)nicotinamide], for which the results for the IC50 (on EGFR L858R; on EGFR (d746-750); in test [1]) were 1.4 nM, 0.7 nM and 1.1 nM, respectively.

With `COc1cc2ncnc(-c3cn(C)nc3-c3ccccc3)c2cc1NC(=O)[C@@]12COC[C@@H]1C2` (single isomer, unassigned) [Example 261, (1R,5R)—N-(7-methoxy-4-(1-methyl-3-phenyl-1H-pyrazol-4-yl)quinazolin-6-yl)-5-methyl-3-oxabicyclo[3.1.0]hexane-1-carboxamide or (1S,5S)—N-(7-methoxy-4-(1-methyl-3-phenyl-1H-pyrazol-4-yl)quinazolin-6-yl)-3-oxabicyclo[3.1.0]hexane-1-carboxamide], the IC50 on EGFR L858R amounted to 2.8 nM; on EGFR (d746-750), 1.3 nM; in test [1], 6.1 nM.

Consider `[2H]C([2H])([2H])n1cc(-c2ncnc3cc(OC)c(NC(=O)C4(C(F)(F)F)CC4)nc23)c(-c2ccccc2)n1` [Example 320, N-(7-methoxy-4-(1-(methyl-d3)-3-phenyl-1H-pyrazol-4-yl)pyrido[3,2-d]pyrimidin-6-yl)-1-(trifluoromethyl)cyclopropane-1-carboxamide], for which the half-inhibitory concentration (IC50) was 2 nM at EGFR L858R, 0.6 nM on EGFR (d746-750) and 1.1 nM in test [1].

Regarding `COc1cc2ncnc(-c3cn(C)nc3-c3ccccc3)c2cc1NC(=O)N1CCN(C)[C@@H](C)[C@H]1C` (single isomer, unassigned) [Example 180, (2R,3S)—N-(7-methoxy-4-(1-methyl-3-phenyl-1H-pyrazol-4-yl)quinazolin-6-yl)-2,3,4-trimethylpiperazine-1-carboxamide or (2S,3R)—N-(7-methoxy-4-(1-methyl-3-phenyl-1H-pyrazol-4-yl)quinazolin-6-yl)-2,3,4-trimethylpiperazine-1-carboxamide], the IC50 on EGFR L858R worked out at 3.8 nM; at EGFR (d746-750), 2.2 nM; in test [1], 4 nM.

Regarding `COc1cc2ncnc(-c3cn(C)nc3-c3ccccc3)c2nc1NC(=O)C12CCCN1CCC2` [Example 368, N-(7-methoxy-4-(1-methyl-3-phenyl-1H-pyrazol-4-yl)pyrido[3,2-d]pyrimidin-6-yl)tetrahydro-1H-pyrrolizine-7a(5H)-carboxamide], the IC50 at EGFR L858R is 3.9 nM; at EGFR (d746-750), 1.5 nM; in test [1], 4.6 nM.

In the case of `COc1cc2ncnc(-c3cn(C)nc3-c3ccccc3)c2nc1O[C@H](C)c1nnc(C)o1` [Example 38, (R)-2-(1-((7-methoxy-4-(1-methyl-3-phenyl-1H-pyrazol-4-yl)pyrido[3,2-d]pyrimidin-6-yl)oxy)ethyl)-5-methyl-1,3,4-oxadiazole], the IC50 at EGFR L858R turned out to be 5.9 nM; at EGFR (d746-750), 6.7 nM; in test [1] it was 25.6 nM.

Regarding `CCn1cc([C@H](C)Oc2nc3c(-c4cn(C)nc4-c4ccccc4)ncnc3cc2OC)nn1` [Example 36, (S)-6-(1-(1-ethyl-1H-1,2,3-triazol-4-yl)ethoxy)-7-methoxy-4-(1-methyl-3-phenyl-1H-pyrazol-4-yl)pyrido[3,2-d]pyrimidine], the figures for the IC50 (at EGFR L858R; on EGFR (d746-750); in test [1]) were 9.7 nM, 3.2 nM and 14 nM, respectively.

Consider `COc1cc2ncnc(-c3cn(C)nc3-c3ccccc3)c2nc1O[C@@H](C)c1cocn1` [Example 39, (S)-4-(1-((7-methoxy-4-(1-methyl-3-phenyl-1H-pyrazol-4-yl)pyrido[3,2-d]pyrimidin-6-yl)oxy)ethyl) oxazole], for which the IC50 turned out to be 3.5 nM on EGFR L858R, 2.1 nM on EGFR (d746-750) and 5.3 nM in test [1].

As to `CCOc1cc2ncnc(-c3cn(C(C)C)nc3-c3ccccc3)c2cc1[C@@H](C)O` (single isomer, unassigned) [Example 109, (R)-1-(7-ethoxy-4-(1-isopropyl-3-phenyl-1H-pyrazol-4-yl)quinazolin-6-yl)ethan-1-ol or (S)-1-(7-ethoxy-4-(1-isopropyl-3-phenyl-1H-pyrazol-4-yl)quinazolin-6-yl)ethan-1-ol], the IC50 came out at 3.8 nM on EGFR L858R, 2.2 nM at EGFR (d746-750) and 4.7 nM in test [1].

For `CCn1cc(-c2ncnc3cc(OC)c(N4CCOCC4)cc23)c(-c2ccccc2)n1` [Example 169, 4-(4-(1-ethyl-3-phenyl-1H-pyrazol-4-yl)-7-methoxyquinazolin-6-yl)morpholine], the IC50 was 1.7 nM at EGFR L858R, 0.9 nM at EGFR (d746-750) and 1.9 nM in test [1].

Regarding `COc1cc2ncnc(-c3cn(C)nc3-c3ccccc3)c2cc1NC(=O)c1cnc(C)s1` [Example 206, N-(7-methoxy-4-(1-methyl-3-phenyl-1H-pyrazol-4-yl)quinazolin-6-yl)-2-methylthiazole-5-carboxamide], the half-maximal inhibitory concentration (IC50) on EGFR L858R amounted to 0.8 nM; on EGFR (d746-750) it was 0.4 nM; in test [1], 0.5 nM.

On to `COc1cc2ncnc(-c3cn(C)nc3-c3ccccc3)c2cc1NC(=O)c1sc(C2CC2)nc1C` [Example 354, 2-cyclopropyl-N-(7-methoxy-4-(1-methyl-3-phenyl-1H-pyrazol-4-yl)quinazolin-6-yl)-4-methylthiazole-5-carboxamide], for which the IC50 at EGFR L858R turned out to be 2.6 nM; on EGFR (d746-750), 1.2 nM; in test [1] it was 0.8 nM.

With `COc1cc2ncnc(-c3cn(C)nc3-c3ccccc3)c2nc1NC(=O)C1(C)CCCO1` (stereo not drawn) [Example 316, N-(7-methoxy-4-(1-methyl-3-phenyl-1H-pyrazol-4-yl)pyrido[3,2-d]pyrimidin-6-yl)-2-methyltetrahydrofuran-2-carboxamide], the half-maximal inhibitory concentration (IC50) at EGFR L858R came to 3.5 nM; at EGFR (d746-750), 0.8 nM; in test [1], 3.1 nM.

Consider `CCOc1cc2ncnc(-c3cn(CC(F)F)nc3-c3ccccc3)c2cc1OC` [Example 19, 4-(1-(2,2-difluoroethyl)-3-phenyl-1H-pyrazol-4-yl)-7-ethoxy-6-methoxyquinazoline], for which the figures for the IC50 (at EGFR L858R; on EGFR (d746-750); in test [1]) were 1.6 nM, 0.8 nM and 1.3 nM, respectively.

`COc1cc2ncnc(-c3cn(C)nc3-c3ccccc3)c2cc1NC(=O)C1CC(OC)C1` (stereo not drawn) [Example 215, 3-methoxy-N-(7-methoxy-4-(1-methyl-3-phenyl-1H-pyrazol-4-yl)quinazolin-6-yl)cyclobutane-1-carboxamide]: the IC50 at EGFR L858R turned out to be 2.7 nM; at EGFR (d746-750), 1.6 nM; in test [1], 1.1 nM.
